According to the NIST ThermoML archive (doi:10.1021/je050261u):

Assay: xn = mol fraction of the nth substance listed
Conditions: 323.15 K, Liquid, Vibrating tube method

CCCCCCC [heptane] + CCO
mass density [kg/m3]
Conditions | 5000 kPa | 10000 kPa | 15000 kPa | 20000 kPa | 25000 kPa | 30000 kPa | 35000 kPa | 40000 kPa | 45000 kPa | 50000 kPa
x2 = 0 | – | 668.7 | 673.4 | 678 | 682.5 | 686.5 | 690.4 | 694.1 | 697.7 | 701.1
x2 = 0.125 | – | 672.7 | 677.6 | 682.2 | 686.8 | 690.9 | 694.7 | 698.5 | 702 | 705.4
x2 = 0.25 | – | 678 | 682.9 | 687.6 | 692.1 | 696.2 | 700 | 703.7 | 707.4 | 710.8
x2 = 0.375 | – | 685.2 | 690 | 694.7 | 699.2 | 703.4 | 707.3 | 711 | 714.6 | 718
x2 = 0.5 | – | 694.6 | 699.4 | 704 | 708.5 | 712.7 | 716.6 | 720.4 | 724 | –
x2 = 0.625 | – | 705.8 | 710.7 | 715.3 | 719.8 | 723.9 | 727.8 | 731.6 | 735.2 | –
x2 = 0.75 | 716.1 | 721.3 | 726.1 | 730.6 | 735.1 | 739.1 | 743 | 746.8 | 750.3 | –
x2 = 0.875 | 737 | 742.1 | 746.7 | 751.1 | 755.5 | 759.5 | 763.4 | 767 | 770.6 | –
